From PubChem BioAssay AID2060896 (Molecular Pharmacology Branch, DTP, NCI, 2025)

System: 941728-121-R-J1-PDC complex spheroid viability
Assay: Anticancer human tumor 941728-121-R-J1-PDC patient-derived lung adenocarcinoma cell line growth inhibition [RAS]
Settings: for IC50: curve of first compound; for viability, T/C: stronger effect = lower value
Outline: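 Multi-cell-type spheroids: tumor cells plus HUVEC endothelial cells and mesenchymal stem cells. RAS-pathway inhibitors were combined with targeted agents, each dosed in half-log steps down from clinical Cmax, or from 10 microM when Cmax was unknown.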

[1] = second compound 0.00316 µM, first compound 0.0316 µM
[2] = second compound 0.00316 µM, first compound 0.1 µM
[3] = second compound 0.00316 µM, first compound 0.316 µM
[4] = second compound 0.00316 µM, first compound 1 µM
[5] = second compound 0.00316 µM, first compound 3.16 µM
[6] = second compound 0.00316 µM, first compound 10 µM
[7] = second compound 0.01 µM, first compound 0.0316 µM
[8] = second compound 0.01 µM, first compound 0.1 µM
[9] = second compound 0.01 µM, first compound 0.316 µM
[10] = second compound 0.01 µM, first compound 1 µM
[11] = second compound 0.01 µM, first compound 3.16 µM
[12] = second compound 0.01 µM, first compound 10 µM
[13] = second compound 0.0316 µM, first compound 0.0316 µM
[14] = second compound 0.0316 µM, first compound 0.1 µM
[15] = second compound 0.0316 µM, first compound 0.316 µM
[16] = second compound 0.0316 µM, first compound 1 µM
[17] = second compound 0.0316 µM, first compound 3.16 µM
[18] = second compound 0.0316 µM, first compound 10 µM
[19] = second compound 0.1 µM, first compound 0.0316 µM
[20] = second compound 0.1 µM, first compound 0.1 µM
[21] = second compound 0.1 µM, first compound 0.316 µM
[22] = second compound 0.1 µM, first compound 1 µM
[23] = second compound 0.1 µM, first compound 3.16 µM
[24] = second compound 0.1 µM, first compound 10 µM
[25] = second compound 0.316 µM, first compound 0.0316 µM
[26] = second compound 0.316 µM, first compound 0.1 µM
[27] = second compound 0.316 µM, first compound 0.316 µM
[28] = second compound 0.316 µM, first compound 1 µM
[29] = second compound 0.316 µM, first compound 3.16 µM
[30] = second compound 0.316 µM, first compound 10 µM
[31] = second compound 1 µM, first compound 0.0316 µM
[32] = second compound 1 µM, first compound 0.1 µM
[33] = second compound 1 µM, first compound 0.316 µM
[34] = second compound 1 µM, first compound 1 µM
[35] = second compound 1 µM, first compound 3.16 µM
[36] = second compound 1 µM, first compound 10 µM
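Also: spheroids exposed to compounds for 7 days before readout.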
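For viability, T/C in this document: 100% = DMSO vehicle control viability.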

In the case of `CC1(O)CCCC1n1c(=O)c(C(F)F)cc2cnc(NC3CCN(S(C)(=O)=O)CC3)nc21` (centres undefined) + C=CC(=O)N1CCN(c2nc(OCC3CCCN3C)nc3c(F)c(-c4nc(N)cc(C)c4C(F)(F)F)c(Cl)cc23)C(C)C1, the IC50 (second compound 0.00316 µM) is reported as under 31.6 nM, the IC50 (second compound 0.01 µM) is reported as under 31.6 nM and the IC50 (second compound 0.0316 µM) is reported as under 31.6 nM. For the same compound, the IC50 (second compound 0.1 µM) was under 31.6 nM, the IC50 (second compound 0.316 µM) was under 31.6 nM and the IC50 (second compound 1 µM) was under 31.6 nM. For the same compound, the viability, T/C [1] was 21.1%, the viability, T/C [2] was 22.3% and the viability, T/C [3] was 21.8%. For the same compound, the viability, T/C [4] was 24.1%, the viability, T/C [5] was 21.9% and the viability, T/C [6] was 23.6%. The viability, T/C [7] was 18.8%, the viability, T/C [8] was 25.2% and the viability, T/C [9] was 19.6%. The viability, T/C [10] was 21.8%, the viability, T/C [11] was 23% and the viability, T/C [12] was 26.5%. It also gave a viability, T/C [13] of 18%, a viability, T/C [14] of 17.9% and a viability, T/C [15] of 21.4%. For the same compound, the viability, T/C [16] was 19.1%, the viability, T/C [17] was 20.3% and the viability, T/C [18] was 23.1%. It also gave a viability, T/C [19] of 20.1%, a viability, T/C [20] of 18.7% and a viability, T/C [21] of 20.1%. For the same compound, the viability, T/C [22] was 22.8%, the viability, T/C [23] was 21.8% and the viability, T/C [24] was 24.6%. It also gave a viability, T/C [25] of 21.1%, a viability, T/C [26] of 19.9% and a viability, T/C [27] of 21.4%. The viability, T/C [28] was 22.1%, the viability, T/C [29] was 21.6% and the viability, T/C [30] was 28.1%. The viability, T/C [31] was 21.1%, the viability, T/C [32] was 19.7% and the viability, T/C [33] was 26.4%. The viability, T/C [34] was 21.9%, the viability, T/C [35] was 24.1% and the viability, T/C [36] was 33.4%.

`CCC(CC)c1cc(NC2CCC(N)C2)n2nccc2n1` (centres undefined) + C=CC(=O)N1CCN(c2nc(OCC3CCCN3C)nc3c(F)c(-c4nc(N)cc(C)c4C(F)(F)F)c(Cl)cc23)C(C)C1 showed an IC50 (second compound 0.00316 µM) of under 31.6 nM, an IC50 (second compound 0.01 µM) of under 31.6 nM and an IC50 (second compound 0.0316 µM) of under 31.6 nM. It also gave an IC50 (second compound 0.1 µM) of under 31.6 nM, an IC50 (second compound 0.316 µM) of under 31.6 nM and an IC50 (second compound 1 µM) of under 31.6 nM. The viability, T/C [1] was 19.6%, the viability, T/C [2] was 18.1% and the viability, T/C [3] was 20.3%. It also gave a viability, T/C [4] of 27.2%, a viability, T/C [5] of 13.7% and a viability, T/C [6] of 29.1%. For the same compound, the viability, T/C [7] was 20.1%, the viability, T/C [8] was 19.9% and the viability, T/C [9] was 21.8%. The viability, T/C [10] was 28.4%, the viability, T/C [11] was 13.3% and the viability, T/C [12] was 25%. For the same compound, the viability, T/C [13] was 20%, the viability, T/C [14] was 24.5% and the viability, T/C [15] was 23.5%. For the same compound, the viability, T/C [16] was 27.3%, the viability, T/C [17] was 13.7% and the viability, T/C [18] was 25.9%. For the same compound, the viability, T/C [19] was 19.7%, the viability, T/C [20] was 18.3% and the viability, T/C [21] was 23.4%. The viability, T/C [22] was 27.3%, the viability, T/C [23] was 16.6% and the viability, T/C [24] was 25.9%. The viability, T/C [25] was 19.1%, the viability, T/C [26] was 21.6% and the viability, T/C [27] was 21.5%. For the same compound, the viability, T/C [28] was 26%, the viability, T/C [29] was 14.9% and the viability, T/C [30] was 26.1%. It also gave a viability, T/C [31] of 20.6%, a viability, T/C [32] of 21.2% and a viability, T/C [33] of 22.6%. The viability, T/C [34] was 30.2%, the viability, T/C [35] was 16.8% and the viability, T/C [36] was 32.5%.
